Structures are written as SMILES. Active and inactive are the calls of the source.

Data set [1] has as its target Cytochrome P450 2C19 (Homo sapiens, UniProt P33261). The experiment in a line: Cytochrome panel assay with activity outcomes. Panel member name: p450-cyp2c19 Compounds with AC50 equal or less than 10 uM are considered active. It is filed as functional.
The target of data set [2] is Cytochrome P450 2C9 (Homo sapiens, UniProt P11712).
Data set [3] can be described thus: Shn3 3'UTR reporter inhibitors, dose response, cell-based, Clone20 osteoblasts, firefly luciferase, cherry-picked (AID 624132).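 Further: firefly luciferase luminescence from reporter carrying the Shn3 3'UTR in osteoblasts.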 It is filed as functional.
Data set [4] relates to H4. Kind of data set: Luminescence Cell-Based Dose Response HTS to Identify Activators of 5'UTR Stem-Loop Driven Prion Protein mRNA Translation in H4 Neuroglioblastoma Cells. [Related pubchem assays: 1829 (Project Summary), 1814 (Primary HTS)]. In kind it is functional. Particulars: Homo sapiens.
The nature of data set [5]: Luminescence Cell-Based Dose Response HTS to Identify Activators of Luciferase Translation or Activity in H4 […] Cells. [Related pubchem assays: 1829 (Project Summary), 1814 (Primary HTS)]. It is filed as functional.
Data set [6] concerns the target T1, Cytochrome P450 1A2 (Homo sapiens, UniProt P05177).
T1 sequence (P05177 whole entry): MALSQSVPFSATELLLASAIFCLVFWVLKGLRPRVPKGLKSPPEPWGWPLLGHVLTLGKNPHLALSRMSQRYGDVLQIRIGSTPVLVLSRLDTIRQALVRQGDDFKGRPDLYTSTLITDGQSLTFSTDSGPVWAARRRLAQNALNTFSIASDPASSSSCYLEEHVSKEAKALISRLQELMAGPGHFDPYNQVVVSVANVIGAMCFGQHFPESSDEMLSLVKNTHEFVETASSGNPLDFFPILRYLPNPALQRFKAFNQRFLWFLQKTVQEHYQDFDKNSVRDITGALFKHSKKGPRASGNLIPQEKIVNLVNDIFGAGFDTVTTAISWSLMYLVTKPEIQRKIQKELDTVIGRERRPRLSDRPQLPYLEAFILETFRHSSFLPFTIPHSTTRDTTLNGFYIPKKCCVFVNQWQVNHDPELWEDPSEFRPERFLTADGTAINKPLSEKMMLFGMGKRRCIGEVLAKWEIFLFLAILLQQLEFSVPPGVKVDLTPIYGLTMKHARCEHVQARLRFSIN

Data set [7] can be described thus: growth suppression of PTEN-null colon cells, dose response, cell-based, HCT116 PTEN knockout (AID 1047).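 Further: HCT116 colon tumor cells with PTEN knocked out; cells exposed to compound for 60 hours before readout; potency for loss of cell viability measured by luminescence.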 It is filed as functional.
Data set [8] can be described thus: growth suppression of beta-catenin-knockout colon cells, dose response, cell-based, HCT116, human colon tumor (AID 1045).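 Further: HCT116 colon tumor cells with beta catenin knocked out; cells exposed to compound for 60 hours.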 In kind it is functional.
For data set [9], the target named is T2, Rac GTPase-activating protein 1 (Homo sapiens, UniProt Q9H0H5).
T2 sequence (Q9H0H5 whole entry): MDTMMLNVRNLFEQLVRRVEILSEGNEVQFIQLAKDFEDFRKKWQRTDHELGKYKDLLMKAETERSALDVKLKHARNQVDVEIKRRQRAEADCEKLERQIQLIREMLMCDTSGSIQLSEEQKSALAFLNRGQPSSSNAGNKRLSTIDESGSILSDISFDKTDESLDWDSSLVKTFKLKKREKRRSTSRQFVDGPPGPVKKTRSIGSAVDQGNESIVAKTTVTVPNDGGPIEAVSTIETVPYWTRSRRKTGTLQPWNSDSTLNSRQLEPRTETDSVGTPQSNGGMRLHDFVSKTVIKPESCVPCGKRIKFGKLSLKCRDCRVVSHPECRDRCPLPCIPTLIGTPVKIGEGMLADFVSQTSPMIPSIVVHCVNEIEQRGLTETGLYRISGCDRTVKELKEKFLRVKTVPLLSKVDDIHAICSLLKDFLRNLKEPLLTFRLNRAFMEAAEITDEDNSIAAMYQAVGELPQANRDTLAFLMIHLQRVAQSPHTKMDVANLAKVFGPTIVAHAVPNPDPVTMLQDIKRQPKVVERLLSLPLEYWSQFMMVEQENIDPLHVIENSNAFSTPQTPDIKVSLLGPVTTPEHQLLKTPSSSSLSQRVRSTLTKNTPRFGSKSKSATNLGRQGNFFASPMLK
The experiment in a line: MgcRacGAP GTPase-activating activity inhibitors, confirmation, biochemical, ADP Hunter fluorescence, primary and confirmatory (AID 624330). It is filed as functional.

Data set [10] can be described thus: inhibitors of firefly luciferase expression or activity, dose response, H4 neuroglioma cells, luminescence (AID 1990). It is filed as functional, cell-based.
Data set [11] is described as follows: Luminescence Cell-Based Dose Response HTS to Identify Inhibitors of 5'UTR Stem-Loop Driven Prion Protein mRNA Translation in H4 Neuroglioblastoma Cells. [Related pubchem assays: 1827 (Project Summary), 1813 (Primary HTS)]. It is filed as functional.
The nature of data set [12]: inhibitors of SNCA 5'UTR-driven reporter translation, confirmation, H4 neuroglioma cells, luminescence (AID 1988). It is filed as functional, cell-based.

Cytochrome P450 2C9, sequence (P11712 whole entry): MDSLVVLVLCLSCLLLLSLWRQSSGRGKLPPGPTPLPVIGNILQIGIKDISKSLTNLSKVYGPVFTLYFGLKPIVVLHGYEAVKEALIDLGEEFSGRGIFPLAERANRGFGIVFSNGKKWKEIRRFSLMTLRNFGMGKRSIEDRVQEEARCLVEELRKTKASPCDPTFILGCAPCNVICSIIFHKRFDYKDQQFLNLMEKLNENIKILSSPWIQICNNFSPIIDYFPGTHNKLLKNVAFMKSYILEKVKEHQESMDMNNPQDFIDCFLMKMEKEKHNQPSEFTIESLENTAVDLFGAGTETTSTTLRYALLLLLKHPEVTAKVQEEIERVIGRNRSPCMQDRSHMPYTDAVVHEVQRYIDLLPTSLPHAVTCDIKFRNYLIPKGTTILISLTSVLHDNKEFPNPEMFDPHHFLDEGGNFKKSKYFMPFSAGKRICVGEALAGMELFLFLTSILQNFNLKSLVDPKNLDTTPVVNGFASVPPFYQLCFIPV
Cytochrome P450 2C19, sequence (P33261 whole entry): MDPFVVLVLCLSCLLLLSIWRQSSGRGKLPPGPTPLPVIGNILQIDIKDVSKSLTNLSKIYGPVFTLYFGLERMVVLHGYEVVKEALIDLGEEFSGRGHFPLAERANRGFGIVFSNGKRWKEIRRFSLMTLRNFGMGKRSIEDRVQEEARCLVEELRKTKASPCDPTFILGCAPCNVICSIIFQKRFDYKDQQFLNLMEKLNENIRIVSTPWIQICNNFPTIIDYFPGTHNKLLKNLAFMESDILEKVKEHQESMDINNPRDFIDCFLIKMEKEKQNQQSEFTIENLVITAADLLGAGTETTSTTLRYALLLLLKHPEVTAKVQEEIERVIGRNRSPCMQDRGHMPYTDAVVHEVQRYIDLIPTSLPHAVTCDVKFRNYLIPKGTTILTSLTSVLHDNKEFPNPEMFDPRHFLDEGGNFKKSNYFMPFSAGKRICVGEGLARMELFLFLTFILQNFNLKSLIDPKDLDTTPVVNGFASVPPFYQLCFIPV

One may read the AC50 as the concentration giving half of the maximal activity seen. `c1cncc(-c2nc(NCc3cccs3)c3ccccc3n2)c1`: the AC50 in [1] (read-out: AC50) was 5.01 µM (inconclusive); in data set [2] it was 1 µM (inconclusive).

As for `Cc1ccc(S(=O)(=O)NCCc2cc3ccc(C)cc3nc2O)cc1`, the AC50 in [3] was > 70 µM (inactive).

In the case of `Cc1cccc(C(=N)NOC(=O)CCCN2C(=O)c3ccccc3C2=O)c1`, the AC50 entry was “inconclusive” in [1] and 3.98 µM (inconclusive) in [2].

Broadly, the EC50 is the concentration giving half of the maximal effect. For `Cc1nc2nc(-c3ccc(Cl)cc3)nn2c(C)c1Cl`, the figures for the EC50 in data set [4] and in data set [5] were 5.95 µM (active) and 454 nM (active), respectively. The AC50 in data set [1] (read-out: AC50) is 39.8 µM (inconclusive); in data set [2], 20 µM (inconclusive).

For `COCC(=O)Nc1ccc(-c2cn3cccnc3n2)cc1`, the AC50 is 3.98 µM (inconclusive) in [1] (read-out: AC50) and 6.31 µM (inconclusive) in data set [2].

Take `CC(=O)OC[C@@H]1O[C@H](CCO/N=C(\C)CCC(=O)OC[C@@H]2O[C@H](C#Cc3ccccc3)C=C[C@@H]2Oc2ccc(C)cc2)C=C[C@@H]1OC(C)=O`: the AC50 in data set [2] was 6.31 µM (inconclusive).

Regarding `Cn1cccc1C(=O)N1CCC2(CC1)CCN(c1ccccn1)CC2`, the half-maximal activity concentration (AC50) in data set [2] is 31.6 µM (inconclusive); in [6], 15.8 µM (inconclusive).

Consider `CCC(C)(C)n1nnnc1C(c1cc2cc(C)cc(C)c2nc1O)N1CCN(C(=O)c2ccco2)CC1` (stereo not given), for which the results for the EC50 in [7] and in data set [8] were 28.4 µM (active) and 30.2 µM (active), respectively.

With `Cc1ccc(Nc2nc(N)nc(CN3CCN(Cc4ccc5c(c4)OCO5)CC3)n2)cc1Cl`, the figures for the EC50 in data set [7] and in data set [8] were 18 µM (active) and 15.9 µM (active), respectively.

Take `CCOC(=O)c1[nH]c2c(c1-c1ccccc1)C(=O)CC(c1ccc(OC)c(OC)c1)C2` (stereo not given): the EC50 in data set [7] is 54 µM (active); in [8], 69.1 µM (active).

`O[C@@H]1[C@H](O)[C@H]2[C@@H](O)CCN2C[C@@H]1O`: the AC50 in [1] (read-out: AC50) is 39.8 µM (inconclusive); in data set [2] it was 25.1 µM (inconclusive); in data set [6], 31.6 µM (inconclusive).

With `O=C(NC(=S)Nc1ccc(Oc2ccc(Cl)cc2)cc1)c1ccccc1`, the AC50 is 7.08 µM (inconclusive) in [1] (read-out: AC50) and 2.82 µM (inconclusive) in data set [2].

`O=C(c1cc(C2CC2)nc2ccc(Br)cc12)N1N=C(C(F)F)CC1(O)C(F)F` (stereo not given): the concentration for a half-maximal effect (EC50) was 10.5 µM (active) in data set [7] and 13.9 µM (active) in data set [8].

For the molecule `Cc1nc2cncnc2n(C2CC2)c1=O`, the AC50 in data set [2] was 7.94 µM (inconclusive).

On to `CC1(C)Cc2c(c(-c3ccco3)nc3sc4c(NCCN5CCOCC5)ncnc4c23)CO1`, for which the EC50 in data set [7] was 8.46 µM (active); in [8], 16.2 µM (active).

The IC50 is the concentration at which inhibition is half-maximal. Consider `S=C(NCCN1CCOCC1)Nc1ccc(Nc2ccccc2)cc1`, for which the IC50 in data set [9] was 129 µM (active).

Take `OC(COCC1COc2ccccc2O1)CN1CCN(c2ccccc2F)CC1` (stereo not given): in data set [2], the AC50 was 20 µM (inconclusive).

Turning to `Cc1ncc([N+](=O)[O-])n1CCOC(=O)NC(NCc1ccccc1)C(Cl)(Cl)Cl` (stereo not given), the AC50 in data set [1] (read-out: AC50) is 14.1 µM (inconclusive); in data set [2], 12.6 µM (inconclusive); in [6] it was 25.1 µM (inconclusive).

`Cc1cc(C)c(NC(=O)CSc2nc(COc3ccccc3)nc3ccccc23)c(C)c1`: the figures for the EC50 in data set [10], in data set [11] and in [12] were > 120 µM (not active), 16.6 µM (active) and > 120 µM (not active), respectively.

As for `COCCn1c(=O)c(-c2cn(C)c3ccccc23)nc2cncnc21`, the AC50 was 25.1 µM (inconclusive) in data set [1] (read-out: AC50) and 10 µM (inconclusive) in data set [2].

With `CCN1C(=O)[C@H]2[C@@H](c3ccc(-c4ccc(F)cc4)c(OC)c3)N[C@@](CC(C)C)(C(=O)OC)[C@H]2C1=O`, the EC50 in [10] is 17.2 µM (active); in data set [11] it was 26.4 µM (active); in data set [12] it was 13.9 µM (active).

In the case of `Nc1ccc(N2CCCC2)c(S(=O)(=O)Nc2cccc(C(F)(F)F)c2)c1`, the IC50 in [9] is 120 µM (active).

`Cc1ccn2c(S)nnc2c1`: the IC50 in data set [9] is 19.4 µM (active).
